Test results: patent US11136317B2, “NADPH oxidase 4 inhibitors” (ACTELION PHARMACEUTICALS LTD, priority 2015, dated 2021)

target: T1, human NOX4 (Homo sapiens, UniProt Q9NPH5); assay: Amplex Red activity assay (cellular H2O2 formation in hNOX4 T-REx-293 cells); assay type: cell-based; conditions: tet-induced 24 h, extracellular H2O2 by Amplex Red, 60 min 25° C., geometric mean if determined several times
T1 construct: The full-length human NOX4 (NM_016931.3) transcript was cloned; expressed in transfected cells
T1 sequence (Q9NPH5 1-578): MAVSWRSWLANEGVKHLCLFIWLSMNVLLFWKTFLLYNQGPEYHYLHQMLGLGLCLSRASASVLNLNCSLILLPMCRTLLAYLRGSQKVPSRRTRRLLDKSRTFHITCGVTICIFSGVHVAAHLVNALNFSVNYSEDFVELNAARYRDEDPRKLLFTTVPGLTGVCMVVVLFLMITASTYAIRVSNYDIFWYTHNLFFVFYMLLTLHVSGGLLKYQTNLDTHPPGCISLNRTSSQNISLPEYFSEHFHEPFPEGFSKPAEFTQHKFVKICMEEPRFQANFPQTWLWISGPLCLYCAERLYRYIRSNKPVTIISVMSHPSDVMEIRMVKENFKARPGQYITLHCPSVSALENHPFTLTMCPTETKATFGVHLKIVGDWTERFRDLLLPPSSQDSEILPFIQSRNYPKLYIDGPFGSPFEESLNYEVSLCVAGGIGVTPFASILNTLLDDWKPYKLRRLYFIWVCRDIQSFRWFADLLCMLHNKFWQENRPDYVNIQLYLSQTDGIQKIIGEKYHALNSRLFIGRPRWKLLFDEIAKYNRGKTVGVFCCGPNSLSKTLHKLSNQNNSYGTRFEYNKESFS
T1 sequence (P13498 1-195 partner): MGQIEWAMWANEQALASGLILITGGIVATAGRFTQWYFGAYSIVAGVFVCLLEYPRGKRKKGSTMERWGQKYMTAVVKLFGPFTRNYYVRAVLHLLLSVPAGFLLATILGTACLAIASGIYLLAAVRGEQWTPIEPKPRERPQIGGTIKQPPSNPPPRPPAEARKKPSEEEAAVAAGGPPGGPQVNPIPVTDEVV
How it was run: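 Tet-induced (1 μg/mL, 24 h) HEK293 T-REx cells stably expressing full-length human NOX4, 20 000 cells/well, exposed to compounds (10 concentrations, 50 μM to 100 nM; 1.25% DMSO) for 60 min at 25°C. Extracellular H2O2 detected by Amplex Red resorufin fluorescence (ex 550/em 600 nm) versus vehicle; IC50 calculated.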

Row | Compound | IC50 [µM]
1 | O=C(Nc1ccc2sc(N3CCCC3)nc2c1)c1ccc2c(c1)CCO2 [Example 84, 2,3-Dihydro-benzofuran-5-carboxylic acid (2-pyrrolidin-1-yl-benzothiazol-5-yl)-amide] | 1.32
2 | CCN(CC)c1nc2cc(NC(=O)c3ccc4c(c3)CCO4)ccc2s1 [Example 85, 2,3-Dihydro-benzofuran-5-carboxylic acid (2-diethylamino-benzothiazol-5-yl)-amide] | 1.65
3 | O=C(Nc1ccc2sc(N3CC4(COC4)C3)nc2c1)c1ccc2c(c1)CCO2 [Example 91, 2,3-Dihydro-benzofuran-5-carboxylic acid [2-(2-oxa-6-aza-spiro[3.3]hept-6-yl)-benzothiazol-5-yl]-amide] | 4.33
4 | O=C(Nc1ccc2sc(N3CCS(=O)(=O)CC3)nc2c1)c1ccc2c(c1)CCO2 [Example 92, 2,3-Dihydro-benzofuran-5-carboxylic acid [2-(1,1-dioxo-1l6-thiomorpholin-4-yl)-benzothiazol-5-yl]-amide] | 2.46
5 | COC1CCN(c2nc3cc(NC(=O)c4ccc5c(c4)CCO5)ccc3s2)C1 (centres unmarked) [Example 94, 2,3-Dihydro-benzofuran-5-carboxylic acid [2-(3-methoxy-pyrrolidin-1-yl)-benzothiazol-5-yl]-amide] | 3.29
6 | COC1CCN(c2nc3cc(NC(=O)c4ccc5c(c4)CCO5)ccc3s2)CC1 [Example 95, 2,3-Dihydro-benzofuran-5-carboxylic acid [2-(4-methoxy-piperidin-1-yl)-benzothiazol-5-yl]-amide] | 2.14
7 | CN(C)C1CCN(c2nc3cc(NC(=O)c4ccc5c(c4)CCO5)ccc3s2)CC1 [Example 97, 2,3-Dihydro-benzofuran-5-carboxylic acid [2-(4-dimethylamino-piperidin-1-yl)-benzothiazol-5-yl]-amide] | 6.3
8 | O=C(Nc1ccc2sc(N3CC[C@H](O)C3)nc2c1)c1ccc2c(c1)CCO2 [Example 98, (S)—N-(2-(3-hydroxypyrrolidin-1-yl)benzo[d]thiazol-5-yl)-2,3-dihydrobenzofuran-5-carboxamide] | 2.53
9 | CN(c1nc2cc(NC(=O)c3ccc4c(c3)CCO4)ccc2s1)C1CCN(C2COC2)CC1 [Example 100, 2,3-Dihydro-benzofuran-5-carboxylic acid {2-[methyl-(1-oxetan-3-yl-piperidin-4-yl)-amino]-benzothiazol-5-yl}-amide] | 3.39
10 | O=C(Nc1ccc2sc(N3CCN(C4COC4)CC3)nc2c1)c1ccc2c(c1)CCO2 [Example 102, 2,3-Dihydro-benzofuran-5-carboxylic acid [2-(4-oxetan-3-yl-piperazin-1-yl)-benzothiazol-5-yl]-amide] | 9.17
11 | CN(c1nc2cc(NC(=O)c3ccc4c(c3)CCO4)ccc2s1)C1COC1 [Example 103, 2,3-Dihydro-benzofuran-5-carboxylic acid [2-(methyl-oxetan-3-yl-amino)-benzothiazol-5-yl]-amide] | 3.21
12 | CC(C)OC1CN(c2nc3cc(NC(=O)c4ccc5c(c4)CCO5)ccc3s2)C1 [Example 106, 2,3-Dihydro-benzofuran-5-carboxylic acid [2-(3-isopropoxy-azetidin-1-yl)-benzothiazol-5-yl]-amide] | 9.39
13 | COC1CCCN(c2nc3cc(NC(=O)c4ccc5c(c4)CCO5)ccc3s2)C1 (centres unmarked) [Example 108, 2,3-Dihydro-benzofuran-5-carboxylic acid [2-(3-methoxy-piperidin-1-yl)-benzothiazol-5-yl]-amide] | 2.54
14 | O=C(Nc1ccc2sc(N3CCC(O)CC3)nc2c1)c1ccc2c(c1)CCO2 [Example 110, 2,3-Dihydro-benzofuran-5-carboxylic acid [2-(4-hydroxy-piperidin-1-yl)-benzothiazol-5-yl]-amide] | 2.03
15 | O=C(Nc1ccc2sc(N3CC[C@@H](O)C3)nc2c1)c1ccc2c(c1)CCO2 [Example 112, 2,3-Dihydro-benzofuran-5-carboxylic acid [2-((R)-3-hydroxy-pyrrolidin-1-yl)-benzothiazol-5-yl]-amide] | 2.27
16 | COCC1CCCN1c1nc2cc(NC(=O)c3ccc4c(c3)CCO4)ccc2s1 (centres unmarked) [Example 113, 2,3-Dihydro-benzofuran-5-carboxylic acid [2-(2-methoxymethyl-pyrrolidin-1-yl)-benzothiazol-5-yl]-amide] | 3.25

More lines, now with the values ahead:

Row | IC50 [µM] | Compound
17 | 2.45 | O=C(Nc1ccc2sc(N3CCCCC3)nc2c1)c1ccc2c(c1)CCO2 [Example 81, 2,3-Dihydro-benzofuran-5-carboxylic acid (2-piperidin-1-yl-benzothiazol-5-yl)-amide]
18 | 2.35 | O=C(Nc1ccc2sc(N3CCOCC3)nc2c1)c1ccc2c(c1)CCO2 [Example 82, 2,3-Dihydro-benzofuran-5-carboxylic acid (2-morpholin-4-yl-benzothiazol-5-yl)-amide]
19 | 3.54 | CN1CCN(c2nc3cc(NC(=O)c4ccc5c(c4)CCO5)ccc3s2)CC1 [Example 83, 2,3-Dihydro-benzofuran-5-carboxylic acid [2-(4-methyl-piperazin-1-yl)-benzothiazol-5-yl]-amide]
20 | 4.1 | O=C(Nc1ccc2sc(N3CC(F)(F)C3)nc2c1)c1ccc2c(c1)CCO2 [Example 87, 2,3-Dihydro-benzofuran-5-carboxylic acid [2-(3,3-difluoro-azetidin-1-yl)-benzothiazol-5-yl]-amide]
21 | 3.66 | O=C(Nc1ccc2sc(N3CCC(F)(F)C3)nc2c1)c1ccc2c(c1)CCO2 [Example 88, 2,3-Dihydro-benzofuran-5-carboxylic acid [2-(3,3-difluoro-pyrrolidin-1-yl)-benzothiazol-5-yl]-amide]
22 | 1.92 | O=C(Nc1ccc2sc(N3CCCC(F)(F)C3)nc2c1)c1ccc2c(c1)CCO2 [Example 89, 2,3-Dihydro-benzofuran-5-carboxylic acid [2-(3,3-difluoro-piperidin-1-yl)-benzothiazol-5-yl]-amide]
23 | 0.361 | O=C(Nc1ccc2sc(N3CCC34COC4)nc2c1)c1ccc2c(c1)CCO2 [Example 90, 2,3-Dihydro-benzofuran-5-carboxylic acid [2-(6-oxa-1-aza-spiro[3.3]hept-1-yl)-benzothiazol-5-yl]-amide]
24 | 10.3 | CN(C)CCN(C)c1nc2cc(NC(=O)c3ccc4c(c3)CCO4)ccc2s1 [Example 93, 2,3-Dihydro-benzofuran-5-carboxylic acid {2-[(2-dimethylamino-ethyl)-methyl-amino]-benzothiazol-5-yl}-amide]
25 | 2.67 | CC1(O)CN(c2nc3cc(NC(=O)c4ccc5c(c4)CCO5)ccc3s2)C1 [Example 96, 2,3-Dihydro-benzofuran-5-carboxylic acid [2-(3-hydroxy-3-methyl-azetidin-1-yl)-benzothiazol-5-yl]-amide]
26 | 3.08 | O=C(Nc1ccc2sc(N3CCC4(CC3)COC4)nc2c1)c1ccc2c(c1)CCO2 [Example 99, 2,3-Dihydro-benzofuran-5-carboxylic acid [2-(2-oxa-7-aza-spiro[3.5]non-7-yl)-benzothiazol-5-yl]-amide]
27 | 2.37 | O=C(Nc1ccc2sc(N3CCCC4(COC4)C3)nc2c1)c1ccc2c(c1)CCO2 [Example 101, 2,3-Dihydro-benzofuran-5-carboxylic acid [2-(2-oxa-6-aza-spiro[3.5]non-6-yl)-benzothiazol-5-yl]-amide]
28 | 6.87 | O=C(Nc1ccc2sc(N3CC4(CCO4)C3)nc2c1)c1ccc2c(c1)CCO2 [Example 104, 2,3-Dihydro-benzofuran-5-carboxylic acid [2-(1-oxa-6-aza-spiro[3.3]hept-6-yl)-benzothiazol-5-yl]-amide]
29 | 14.8 | CN(C)CC1CCN(c2nc3cc(NC(=O)c4ccc5c(c4)CCO5)ccc3s2)C1 (centres unmarked) [Example 105, 2,3-Dihydro-benzofuran-5-carboxylic acid [2-(3-dimethylaminomethyl-pyrrolidin-1-yl)-benzothiazol-5-yl]-amide]
30 | 9.51 | CCOCC1CCCN1c1nc2cc(NC(=O)c3ccc4c(c3)CCO4)ccc2s1 (centres unmarked) [Example 107, 2,3-Dihydro-benzofuran-5-carboxylic acid [2-(2-ethoxymethyl-pyrrolidin-1-yl)-benzothiazol-5-yl]-amide]
31 | 1.78 | O=C(Nc1ccc2sc(N3CC(O)C3)nc2c1)c1ccc2c(c1)CCO2 [Example 109, 2,3-Dihydro-benzofuran-5-carboxylic acid [2-(3-hydroxy-azetidin-1-yl)-benzothiazol-5-yl]-amide]
32 | 2.94 | O=C(Nc1ccc2sc(N3CCC[C@H](O)C3)nc2c1)c1ccc2c(c1)CCO2 [Example 114, 2,3-Dihydro-benzofuran-5-carboxylic acid [2-((S)-3-hydroxy-piperidin-1-yl)-benzothiazol-5-yl]-amide]
